Test results as given in patent US8507476B2, “Substituted arylamide diazepinopyrimidone derivatives” (Sanofi, priority 2008, dated 2013).
Counter-ions that a name gives are not always drawn.

Columns and labels:
GSK3β = GSK3β (Homo sapiens, UniProt P49841); assay: Inhibitory activity against GSK3β (33P-ATP phosphorylation of prephosphorylated GS1 peptide); format: biochemical; details: protocol 4: commercial GSK3beta (Millipore), 7.5 μM GS1 peptide, 10 μM ATP, 90 minutes at room temperature
Experimental: Inhibitory Activity of the Medicament of the Present Invention Against GSK3β Four different protocols can be used. In a first protocol: 7.5 μM of prephosphorylated GS1 peptide and 10 μM ATP (containing 300,000 cpm of ^33P-ATP) were incubated in 25 mM Tris-HCl, pH 7.5, 0.6 mM DTT, 6 mM MgCl2, 0.6 mM EGTA, 0.05 mg/ml BSA buffer for 1 hour at room temperature in the presence of GSK3beta (total reaction volume: 100 microliters). In a second protocol: 4.1 μM of prephosphorylated GS1 peptide and 42 μM ATP (containing 260,000 cpm ^33P-ATP) were incubated in 80 mM Mes-NaOH, pH 6.5, 1 mM Mg acetate, 0.5 mM EGTA, 5 mM 2-mercaptoethanol, 0.02% Tween 20, 10% glycerol buffer for 2 hours at room temperature in the presence of GSK3beta. In a third protocol: 7.5 μM of prephosphorylated GS1 peptide and 10 μM ATP (containing 300,000 cpm of ^33P-ATP) were incubated in 50 mM Hepes, pH 7.2, 1 mM DTT, 1 mM MgCl2, 1 mM EGTA, 0.01% Tween 20 buffer for one hour at room temperature in the presence of GSK3beta (total reaction volume: 100 microliters). In a fourth protocol: 7.5 μM of prephosphorylated GS1 peptide and 10 μM ATP (containing 300,000 cpm of ^33P-ATP) were incubated in 50 mM Hepes, pH 7.2, 1 mM DTT, 1 mM MgCl2, 1 mM EGTA, 0.01% Tween 20 buffer for 90 minutes at room temperature in the presence of commercial GSK3beta (Millipore) (total reaction volume: 100 microliters). Inhibitors were solubilised in DMSO (final solvent concentration in the reaction medium, 1%). The reaction was stopped with 100 microliters of a solution made of 25 g polyphosphoric acid (85% P2O5), 126 ml 85% H3PO4, H2O to 500 ml and then diluted to 1:100 before use. An aliquot of the reaction mixture was then transferred to Whatman P81 cation exchange filters and rinsed with the solution described above. Incorporated ^33P radioactivity was determined by liquid scintillation spectrometry. The phosphorylated GS-1 peptide had the following sequence: NH2-[…](P)EDEE-COOH. (Woodgett, J. R. (1989) Analytical Biochemistry 180, 237-241.

GSK3β, sequence (P49841 whole entry): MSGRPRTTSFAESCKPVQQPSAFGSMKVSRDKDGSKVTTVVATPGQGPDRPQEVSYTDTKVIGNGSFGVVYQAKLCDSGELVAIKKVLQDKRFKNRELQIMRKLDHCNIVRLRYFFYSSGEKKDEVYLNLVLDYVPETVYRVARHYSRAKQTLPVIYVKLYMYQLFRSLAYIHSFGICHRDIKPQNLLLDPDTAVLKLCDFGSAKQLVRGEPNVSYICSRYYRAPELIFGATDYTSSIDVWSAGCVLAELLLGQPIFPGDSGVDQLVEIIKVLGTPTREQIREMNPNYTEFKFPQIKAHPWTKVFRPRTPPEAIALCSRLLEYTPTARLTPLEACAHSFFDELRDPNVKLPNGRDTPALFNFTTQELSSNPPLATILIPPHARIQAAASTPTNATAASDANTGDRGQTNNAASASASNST

IC50 (GSK3β) [nM] | melting point [°C] | Compound
0.3 | 240 to 242 | COc1cc(Cl)ccc1C(=O)NC1CNCCn2c1nc(-c1ccncn1)cc2=O (single isomer, unassigned; (+)) [Compound No. 12, (+)-4-Chloro-2-methoxy-N-(4-oxo-2-pyrimidin-4-yl-4,5,6,7,8,9-hexahydro-1,4a,7-triaza-benzocyclohepten-9-yl)-benzamide]
46 | – | COc1cc(Cl)ccc1C(=O)NC1CN(C2CCCC2)CCn2c1nc(-c1ccncn1)cc2=O (racemic) [compound 7, (+/−)-4-Chloro-N-(7-cyclopentyl-4-oxo-2-pyrimidin-4-yl-4,5,6,7,8,9-hexahydro-1,4a,7-triaza-benzocyclohepten-9-yl)-2-methoxy-benzamide]
– | 243 to 245 | COc1cc(Cl)ccc1C(=O)NC1CN(C2CCCC2)CCn2c1nc(-c1ccncn1)cc2=O (racemic) (as salt: HCl) [compound 7, (+/−)-4-Chloro-N-(7-cyclopentyl-4-oxo-2-pyrimidin-4-yl-4,5,6,7,8,9-hexahydro-1,4a,7-triaza-benzocyclohepten-9-yl)-2-methoxy-benzamide]
12 | 210 to 212 | CCOC(=O)N1CCn2c(nc(-c3ccncc3)cc2=O)C(NC(=O)c2ccc(F)cc2OC)C1 (racemic) [compound 35, (+/−)-9-(4-Fluoro-2-methoxy-benzoylamino)-4-oxo-2-pyridin-4-yl-5,6,8,9-tetrahydro-4H-1,4a,7-triaza-benzocycloheptene-7-carboxylic acid ethyl ester]
5 | 182 to 184 | CCOC(=O)N1CCn2c(nc(-c3ccncn3)cc2=O)C(NC(=O)c2ccccc2OC)C1 (racemic) [compound 21, (+/−)-9-(2-Methoxy-benzoylamino)-4-oxo-2-pyrimidin-4-yl-5,6,8,9-tetrahydro-4H-1,4a,7-triaza-benzocycloheptene-7-carboxylic acid ethyl ester]
